Measured values as given in the NIST ThermoML archive (doi:10.1021/je020154p).
Numbers after ± are expanded uncertainties.

Settings: Liquid

Row | SMILES | vapor or sublimation pressure (268.15 K) | vapor or sublimation pressure (278.15 K) | vapor or sublimation pressure (283.15 K) | vapor or sublimation pressure (288.15 K) | vapor or sublimation pressure (298.15 K) | vapor or sublimation pressure (308.15 K) | vapor or sublimation pressure (318.15 K)
1 | FCF [difluoromethane] | 695.4 ± 2.1 kPa | 952 ± 2.6 kPa | 1102.2 ± 3 kPa | 1281.2 ± 3.4 kPa | 1685.6 ± 4.5 kPa | 2185.2 ± 5.7 kPa | 2794.8 ± 7.2 kPa
2 | CCC [propane] | 407.9 ± 1.5 kPa | 549.4 ± 1.8 kPa | 636.4 ± 2 kPa | 735 ± 2.2 kPa | 954.8 ± 2.7 kPa | 1213 ± 3.3 kPa | 1530.8 ± 4.1 kPa
